Data: PubChem BioAssay (NCI)
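Cells were grown in 96-well plates and exposed to each compound for 48 hours at five concentrations; endpoints were interpolated linearly between bracketing concentrations, or set to the highest concentration if not reached. Abbreviation: GI50, concentration required for 50% inhibition of growth. Definition used: TGI = concentration required for complete inhibition of growth.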

Tests used:
Assay in all cases: NCI-60 cell line screen, 48 h
A549 NSCLC = tested on: A549 NSCLC
BT-549 breast = tested on: BT-549 breast
HL-60(TB) leukemia = tested on: HL-60(TB) leukemia
KM12 colon = tested on: KM12 colon
MDA-N = tested on: MDA-N
MOLT-4 leukemia = tested on: MOLT-4 leukemia
NCI-H226 lung = tested on: NCI-H226 lung
NCI-H460 lung = tested on: NCI-H460 lung
NCI/ADR-RES ovarian = tested on: NCI/ADR-RES ovarian
OVCAR-4 ovarian = tested on: OVCAR-4 ovarian
PC-3 prostate = tested on: PC-3 prostate
SF-268 CNS = tested on: SF-268 CNS
SK-MEL-28 melanoma = tested on: SK-MEL-28 melanoma
SK-MEL-5 melanoma = tested on: SK-MEL-5 melanoma
SK-OV-3 ovarian = tested on: SK-OV-3 ovarian
SR leukemia = tested on: SR leukemia
U251 CNS = tested on: U251 CNS
UACC-62 melanoma = tested on: UACC-62 melanoma
UO-31 renal = tested on: UO-31 renal

| SMILES | TGI (A549 NSCLC) [µM] | TGI (BT-549 breast) [µM] | TGI (HL-60(TB) leukemia) [µM] | TGI (KM12 colon) [µM] | TGI (MDA-N) [µM] | TGI (MOLT-4 leukemia) [µM] | TGI (NCI-H226 lung) [µM] | TGI (NCI-H460 lung) [µM] | TGI (NCI/ADR-RES ovarian) [µM] | TGI (OVCAR-4 ovarian) [µM] | TGI (PC-3 prostate) [µM] | TGI (SF-268 CNS) [µM] | TGI (SK-MEL-28 melanoma) [µM] | TGI (SK-MEL-5 melanoma) [µM] | TGI (SK-OV-3 ovarian) [µM] | TGI (SR leukemia) [µM] | TGI (U251 CNS) [µM] | TGI (UACC-62 melanoma) [µM] | TGI (UO-31 renal) [µM] | GI50 (MOLT-4 leukemia) [µM] |
| --- | --- | --- | --- | --- | --- | --- | --- | --- | --- | --- | --- | --- | --- | --- | --- | --- | --- | --- | --- | --- |
| O=C(/C=C/c1ccc(OCc2ccccc2)cc1)NCc1ccc(C(=O)NCCc2c[nH]c3ccccc23)cc1 | 87.6 | > 100 | > 100 | > 100 | > 100 | > 100 | > 58.8 | > 100 | > 100 | > 48.4 | 55 | 52.4 | > 100 | > 58.6 | 44.4 | > 55.3 | 20.5 | 51.7 | > 100 |  |
| O=C(O)c1nc2ccc(Cl)cc2[nH]c1=O | > 100 | > 100 | > 100 | > 100 | > 100 | > 100 | > 100 | > 100 | > 100 | > 100 | > 100 | > 100 | > 100 | > 100 | > 100 | > 100 | > 100 | > 100 | > 100 |  |
| O=[N+]([O-])C1=Cc2cc(Cl)ccc2OC1c1cccc2ccccc12 (stereo not given) | 3.85 | 1.01 | > 100 | 3.5 | 3.41 | 0.817 | 4.42 | 5.28 | > 22.3 | 3.09 | 2.23 | 3.29 | 3.13 | 2.64 | 4.86 | 2.07 | 3.17 | 4.97 | 2.51 |  |
| CCOC(=O)c1nc2ccccc2nc1NCc1ccc(OC)c(OC)c1 | > 100 | > 100 | > 100 | > 100 | > 100 | > 100 | > 100 | > 100 | > 100 | > 100 | > 100 | > 100 | > 100 | > 100 | > 100 | > 100 | > 100 | > 100 | > 100 |  |
| N#Cc1c(C#N)c(-c2ccccc2)n(Cc2ccccc2)c1N | > 100 | > 100 | > 100 | > 100 | > 100 | > 100 | > 100 |  | > 100 | > 100 | > 100 | > 100 |  | > 100 | > 100 | > 100 | > 100 | > 100 | > 100 |  |
| CC(=O)Nc1ccc2c3c(cc(O)c2c1)N(C(=O)CCCCC(=O)N1CC(CCl)c2c1cc(O)c1cc(NC(C)=O)ccc21)CC3CCl (stereo not given) |  | 2.31 | 4.39 | 14 | 0.566 | 0.0176 | 0.763 |  | > 100 | > 27.7 | > 33.7 | 2.77 | > 33.3 | 0.391 | > 64.5 | 0.0278 |  | 0.22 | > 44.6 |  |
| COC(=O)CN(CC(O)C(NC(C)=O)C(O)C=O)C(=O)OCc1ccccc1 (stereo not given) | > 100 | > 100 | > 100 | > 100 | > 100 | > 100 | > 100 | > 100 | > 100 | > 100 | > 100 | > 100 | > 100 | > 100 | > 100 | > 100 | > 100 | > 100 | > 100 |  |
| CC(C)(C)OC(=O)N1CC(CCl)c2ccc(O)cc21 (stereo not given) | 11.3 | 4.61 | 5.29 | 4.6 | 3.67 | 8.13 | 4.53 | 10.2 | 3.68 | 1.39 | 5.51 | 4.26 | 4.17 | 2.77 | 11.8 | > 100 | 12.1 | 4.56 | 6.17 |  |
| O=C1NC(N2CCCC(CO)C2)=N/C1=C\c1ccccc1 (stereo not given) | > 100 | > 100 | > 100 | > 100 | > 100 | > 100 | > 100 |  | > 100 | > 100 | > 100 | > 100 | > 100 | > 100 | > 100 | > 100 | > 100 | > 100 | > 100 |  |
| COc1cccc2c1C1(O)C2CCCCCCCCCC12OCCCO2 (stereo not given) | > 100 | > 100 | > 47.8 | > 100 | > 100 | > 100 | > 94.2 | > 59.5 | > 100 | > 100 | > 100 | > 100 | > 100 | > 100 | > 100 | 35.6 | > 100 | > 100 | > 100 |  |
| O=C1c2c(O)cc(O)cc2C(C2OC(CO)C(O)C(O)C2O)c2cc(CO)cc(O)c21 (stereo not given) | > 100 | > 100 | > 100 |  | > 100 | > 100 | > 100 | > 100 | > 100 | > 100 | > 100 | > 100 | > 100 | > 100 | > 100 | > 100 | > 100 | > 100 | > 100 |  |
| CC(=O)c1c(SCCN2CCOCC2)n(-c2ccccc2)c(=S)n(-c2ccccc2)c1=O | > 57.6 | 43 | 51.9 | > 54.8 | 47.9 | > 62.9 | > 73.4 | 60.7 | > 100 | > 68.9 | 32 | 39.7 | 57.8 | 34.4 | > 74.2 | > 100 | > 57 | 29.5 | 27.1 |  |
| c1ccc2c(c1)nc1n2CSCC1 | > 100 | > 100 | > 100 | > 100 | > 100 | > 100 | > 100 | > 100 | > 100 | > 100 | > 100 | > 100 | > 100 | > 100 | > 100 | > 100 | > 100 | > 100 | > 100 |  |
| CNC(=O)N(CCC#N)CCN(C(=O)N(C)C)c1ccccc1 | > 100 | > 100 | > 100 | > 100 | > 100 | > 100 | > 100 | > 100 | > 100 | > 100 | > 100 | > 100 | > 100 | > 100 | > 100 | > 100 | > 100 | > 100 | > 100 |  |
| Cn1c(=O)c2sc3c4sc5c(=O)n(C)c6ccccc6c5c4sc3c2c2ccccc21 | > 100 | > 100 | > 100 | > 100 | > 100 | > 100 | > 100 | > 100 | > 100 | > 100 | > 100 | > 100 | > 100 | > 100 | > 100 | > 100 | > 100 | > 100 | > 100 |  |
| Cc1cc(S(=O)(=O)Nc2nnc3c4ccccc4cnn23)c(S)cc1Cl | > 100 | > 92.3 | > 100 | > 100 | > 100 | > 100 | > 69.3 | > 85.1 | > 100 | > 100 | > 100 | > 100 | > 100 | > 100 | > 92.7 | > 100 | > 84.2 | > 100 | > 100 |  |
| CC(=O)OC1OC(c2ccoc2)C[C@@]12C1CCC3O[C@]3(C)[C@]1(C)[C@H](OC(C)=O)[C@H](OC(C)=O)[C@H]2C (stereo not given in full) | > 37.5 | > 37.5 | > 37.5 | > 37.5 | > 37.5 | > 37.5 | > 37.5 | > 37.5 | > 37.5 | > 37.5 | > 37.5 |  | > 37.5 | > 37.5 | > 37.5 | > 37.5 | > 37.5 | > 37.5 | > 37.5 |  |
| O=C1c2c(Br)sc(Br)c2[C@@H](Cl)[C@H]1Cl | 79.7 | 39.3 | 20.5 | 65.4 | 40.3 | > 100 | 36.4 | 40.9 | > 100 | 37.4 | 38.9 | 39.8 | 59.3 | 31.1 | 36.3 | 9.14 | 34.8 | 34.6 | 40.4 |  |
| CNCCCNC(=S)Cn1cc(C)c(=O)[nH]c1=O | > 51.3 | > 100 | > 54 | > 78.8 | > 100 | > 71.7 | > 100 | > 67.3 | > 100 | > 100 | > 100 | > 100 | > 75.4 | > 31.4 | > 85.7 | > 100 | > 100 | > 63.5 | > 86.7 |  |
| Cc1csc(NNC(N)=O)n1 | > 100 | > 100 | > 100 | > 100 | > 100 | > 100 | > 100 | > 100 | > 100 | > 100 | > 100 | > 100 | > 100 | > 100 | > 100 | > 100 | > 100 | > 100 | > 100 |  |
| C=C(Cl)/C(=C\Cl)CCC(Cl)C(C)C (stereo not given) | > 100 | > 100 | > 100 | > 100 | > 100 | > 100 | > 100 | > 100 | > 100 | > 100 | > 100 | > 100 | > 100 | > 100 | > 100 | > 100 | > 100 | > 100 | > 100 |  |
| O/N=C1\CC2(N3CCOCC3)CCC1(c1ccccc1)CC2 | > 100 | > 100 | > 100 | > 100 | > 100 | > 100 | > 100 | > 100 | > 100 | > 100 | > 100 | > 100 | > 100 | > 100 | > 100 | > 100 | > 100 | > 100 | > 100 |  |
| Cc1ccc(/C=C2/N=C(N/N=C\C(O)C(O)C(O)CO)NC2=O)cc1 (stereo not given) | > 100 | > 100 | > 100 | > 100 | > 100 | > 100 | > 100 | > 100 | > 100 | > 100 | > 100 | > 100 | > 100 | > 100 | > 100 | > 100 | > 100 |  | > 100 | 46.2 |
| COc1cc2cc(C(=O)N3CC(CCl)c4ccc([N+](C)(C)Cc5ccc([N+](=O)[O-])cc5)cc43)[nH]c2c(OC)c1OC (stereo not given) | > 100 | 35.6 | 5.55 | 5.46 | 16.5 | 6.44 | 15.4 | 4 | 4.17 | 13.6 | 16.3 | 56.7 | 26.5 | 3.31 | 9.64 | 2.31 | 7.36 | 4.69 |  |  |
| CCOc1ccccc1NC(=O)C(=O)C(/C(=N/N)C(=O)OC)c1nc2ccc([N+](=O)[O-])cc2[nH]c1=O (stereo not given) | > 100 | > 100 | > 100 | > 100 | > 100 | > 100 | > 100 | > 100 | > 100 | > 100 | > 100 | > 100 | > 100 | > 100 | > 100 | > 100 | > 100 | > 100 |  |  |
